These results are taken from patent publication US8759520B2, “Compounds for treating cancer” (Boehringer Ingelheim International GmbH, priority 2008, dated 2014).

The structures appear in SMILES notation.

In general, IC50 refers to the point on the concentration scale where inhibition reaches its midpoint.

The target in the assay is Bcl-2 (Homo sapiens, UniProt P10415). Briefly: Homogeneous HTS assay for inhibitors of the Bcl-2 : Bak (72-87) BH3 domain interaction, fluorescence polarisation (2D-FIDA). The format is binding. The following applies: fluorescence polarisation, fluorescent labelled Bak BH3 domain derived peptide; read-out: IC50 [μM] Bcl-2.
Chain of Bcl-2 (P10415 whole entry, species assumed, the tested form may be a part): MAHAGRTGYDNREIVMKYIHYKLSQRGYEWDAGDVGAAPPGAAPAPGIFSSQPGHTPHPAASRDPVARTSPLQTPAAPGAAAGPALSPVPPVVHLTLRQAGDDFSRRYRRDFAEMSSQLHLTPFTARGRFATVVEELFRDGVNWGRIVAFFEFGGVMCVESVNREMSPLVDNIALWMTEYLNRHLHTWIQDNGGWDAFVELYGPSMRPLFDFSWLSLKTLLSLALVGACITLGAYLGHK
Turning to `N=c1n(Cc2ccccc2)c2ccccc2n1CC(O)COc1ccc([N+](=O)[O-])cc1` (stereo not drawn) [Compound 81, 1-(3-Benzyl-2-imino-2,3-dihydro-benzoimidazol-1-yl)-3-(4-nitro-phenoxy)-propan-2-ol], the IC50 was 11 to 100 µM.

As to `N=c1n(Cc2cccc(N3CCN(Cc4ccccc4-c4ccccc4)CC3)c2)c2ccccc2n1CC(O)COc1ccc(F)cc1` (stereo not drawn) [Compound 82, 1-{3-[3-(4-Biphenyl-2-ylmethyl-piperazin-1-yl)-benzyl]-2-imino-2,3-dihydro-benzoimidazol-1-yl}-3-(4-fluoro-phenoxy)-propan-2-ol], the IC50 was less than 10 µM.

As to `N=c1n(Cc2ccc(N3CCN(Cc4ccccc4-c4ccccc4)CC3)cc2)c2ccccc2n1CC(O)COc1ccc(F)cc1` (stereo not drawn) [Compound 83, 1-{3-[4-(4-Biphenyl-2-ylmethyl-piperazin-1-yl)-benzyl]-2-imino-2,3-dihydro-benzoimidazol-1-yl}-3-(4-fluoro-phenoxy)-propan-2-ol], the IC50 was less than 10 µM. Next, `N=c1n(CCCOc2cccc(C(=O)O)c2)c2ccccc2n1Cc1cccc(Br)c1` [Compound 84, 3-{3-[3-(3-Bromo-benzyl)-2-imino-2,3-dihydro-benzoimidazol-1-yl]-propoxy}-benzoic acid]: 11 to 100 µM; `N=c1n(CCCOc2cccc(C(=O)O)c2)c2ccccc2n1Cc1ccc(Br)cc1` [Compound 85, 3-{3-[3-(4-Bromo-benzyl)-2-imino-2,3-dihydro-benzoimidazol-1-yl]-propoxy}-benzoic acid]: 11 to 100 µM; `CS(=O)(=O)NC(=O)c1cccc(OCCCn2c(=N)n(Cc3cccc(Br)c3)c3ccccc32)c1` [Compound 86, N-(3-{3-[3-(3-Bromo-benzyl)-2-imino-2,3-dihydro-benzoimidazol-1-yl]-propoxy}-benzoyl)-methanesulfonamide]: less than 10 µM. As to `N=c1n(CCCOc2ccc(Br)cc2)c2ccccc2n1Cc1ccccc1` [Compound 87, 1-Benzyl-3-[3-(4-bromo-phenoxy)-propyl]-1,3-dihydro-benzoimidazol-2-ylideneamine], the 50% inhibitory concentration (IC50) lay in the range of 11 to 100 µM.

On to `COc1ccc(OCC(O)Cn2c(=N)n(Cc3ccccc3)c3ccccc32)cc1` (stereo not drawn) [Compound 88, 1-(3-Benzyl-2-imino-2,3-dihydro-benzoimidazol-1-yl)-3-(4-methoxy-phenoxy)-propan-2-ol], for which the half-maximal inhibitory concentration (IC50) was in the range of 11 to 100 µM. Take `COc1ccccc1OCC(O)Cn1c(=N)n(Cc2ccccc2)c2ccccc21` (stereo not drawn) [Compound 89, 1-(3-Benzyl-2-imino-2,3-dihydro-benzoimidazol-1-yl)-3-(2-methoxy-phenoxy)-propan-2-ol]: the half-maximal inhibitory concentration (IC50) fell in the range of 11 to 100 µM. In the case of `N=c1n(Cc2ccccc2)c2ccccc2n1CC(O)c1ccco1` (stereo not drawn) [Compound 91, 2-(3-Benzyl-2-imino-2,3-dihydro-benzoimidazol-1-yl)-1-furan-2-yl-ethanol] it was more than 100 µM; in that of `N=c1n(Cc2ccccc2)c2ccccc2n1CC(O)c1ccccc1` (stereo not drawn) [Compound 92, 2-(3-Benzyl-2-imino-2,3-dihydro-benzoimidazol-1-yl)-1-phenyl-ethanol], more than 100 µM. Next, `CCCCn1c(=N)n(CC(O)COc2ccccc2OC)c2ccccc21` (stereo not drawn) [Compound 93, 1-(3-Butyl-2-imino-2,3-dihydro-benzoimidazol-1-yl)-3-(2-methoxy-phenoxy)-propan-2-ol]: more than 100 µM.

With `Cc1ccccc1Cn1c(=N)n(CCCOc2ccccc2)c2ccccc21` [Compound 94, 1-(2-Methyl-benzyl)-3-(3-phenoxy-propyl)-1,3-dihydro-benzoimidazol-2-ylideneamine], the IC50 lay in the range of 11 to 100 µM. Regarding `COc1ccccc1OCCn1c(=N)n(Cc2ccccc2)c2ccccc21` [Compound 95, 1-Benzyl-3-[2-(2-methoxy-phenoxy)-ethyl]-1,3-dihydro-benzoimidazol-2-ylideneamine], the 50% inhibitory concentration (IC50) was 11 to 100 µM.

`N=c1n(CCCOc2ccccc2)c2ccccc2n1Cc1ccccc1F` [Compound 96, 1-(2-Fluoro-benzyl)-3-(3-phenoxy-propyl)-1,3-dihydro-benzoimidazol-2-ylideneamine]: the 50% inhibitory concentration (IC50) lay within 11 to 100 µM.
